Results: patent US20200163984A1, “USE OF ISOVALERYL SPIRAMYCIN I, II AND/OR III IN MANUFACTURING MEDICAMENT FOR TREATING AND/OR PREVENTING TUMOR, AND MEDICAMENT” (SHENYANG FUYANG PHARMACEUTICAL TECHNOLOGY CO., LTD., priority 2017, published 2020)

Experiments:
[1] = tested on: transplanted tumor of human gastric adenocarcinoma cell SGC7901; assay: SGC7901 transplanted tumor in nude mice; settings: SGC7901; 30 mg/kg i.g. 30 days
Procedure: (§1) Then cell concentration was adjusted to 1×10^7/ml with matrigel, then each nude mouse was inoculated subcutaneously with 0.2 ml of cells at its right armpit and recorded as the first day of inoculation. When the tumor grows to be greater than or equal to 100 mm^3, the mice were randomly divided into 11 groups with 6 mice in each group: a model group, a cyclophosphamide group, isovaleryl spiramycin I groups with doses of 25, 50 and 100 mg/kg, isovaleryl spiramycin II groups with doses of 25, 50 and 100 mg/kg, and isovaleryl spiramycin III groups with doses of 25, 50 and 100 mg/kg. Each group was continuously administered intragastrically for 30 days with a dose of 20 ml/kg. The mice were sacrificed the next day after drug withdrawal and the indicators were tested. The long diameter and short diameter of the tumor, and the body weight of each mouse were recorded every 3 days from drug administration to nude mouse sacrifice.
(§2) The body weight of the nude mice and the long diameter (a) and short diameter (b) of the transplanted tumor were measured every 3 days, and the tumor volume (v), relative tumor volume (RTV) and relative tumor proliferation rate (T/C) are calculated respectively according to the following formulas, wherein V=a×b^2/2; RTV=V/V0 (V0 is the tumor volume before administration, V is the tumor volume before sacrifice), and T/C (%)=treatment group RTV/model control group RTV×100%.
(§3) Each mouse was weighed and sacrificed. After the tumor was completely stripped off from the body of the mouse, the non-tumor tissues such as blood stains and fat were removed to weigh the tumor and calculate the tumor growth inhibition rate. The average tumor weight of each group of mice is used as an indicator of efficacy. Tumor growth inhibition rate (%)=(1−the average tumor weight of the treatment group/the average tumor weight of the model group)×100%.

[2] = tested on: transplanted tumor of human lymphoma cell U937; assay: U937 transplanted tumor in nude mice; settings: U937 nude mice, 30 mg/kg
Procedure: as §1, with “U937 cells in a logarithmic growth phase were taken and subjected to a trypan blue exclusion experiment showing that the cell viability was more than 95%, then the cells were subjected to trypsinization, centrifugation, and supernatant removal. Then” for “Then”
as §2, §3

[3] = tested on: transplanted tumor of HL60 cells; assay: HL-60 transplanted tumor in nude mice; settings: dose 30 mg/kg
Procedure: as §1, with “HL-60 cells in a logarithmic growth phase were taken and subjected to a trypan blue exclusion experiment showing that the cell viability was more than 95%, then the cells were subjected to trypsinization, centrifugation, and supernatant removal. Then” for “Then”, “group:” for “group: a model group, a cyclophosphamide group,”, “the” for “the body”
as §2, §3

O=P1(N(CCCl)CCCl)NCCCO1 (stereo not drawn) [Cyclophosphamide, cyclophosphamide, reference compound]
Body Weight (d 1) [1]: 22.63 ± 1.35 g
Body Weight (d 30) [1]: 19.85 ± 0.72 g
Inhibition Rate (tumor growth inhibition rate) [1]: 72.26%
Relative Tumor Proliferation Rate (T/C) [1]: 30.71%
Relative Tumor Volume (RTV) [1]: 4.27 ± 2.36
Tumor Volume (d 1) [1]: 252.63 ± 74.57 mm3
Tumor Volume (d 30) [1]: 865.27 ± 422.15 mm3
Tumor Weight [1]: 0.44 ± 0.41 g
Inhibition Rate (%) [2]: 65.11%
Relative Tumor Proliferation Rate (T/C) [2]: 35.44%
Relative Tumor Volume (RTV) [2]: 6.04 ± 1.26
Tumor Weight [2]: 0.68 ± 0.12 g
Body Weight (g) (d1) ([2]; d1): 21.00 ± 0.72 g
Tumor Volume (mm3) (d 1) ([2]; d1): 125.00 ± 32.61 mm3
Body Weight (g) (d30) ([2]; d30): 19.72 ± 0.95 g
Tumor Volume (mm3) (d30) ([2]; d30): 722.72 ± 55.32 mm3
Inhibition Rate (%) [3]: 70.30%
Relative Tumor Proliferation Rate (T/C) [3]: 24.69%
Relative Tumor Volume (RTV) [3]: 2.78 ± 1.89
Tumor Weight [3]: 0.67 ± 0.30 g
Body Weight (g) (d1) ([3]; d 1): 20.65 ± 1.47 g
Tumor Volume (mm3) (d 1) ([3]; d 1): 180.63 ± 29.97 mm3
Body Weight (g) (d30) ([3]; d 30): 18.47 ± 0.91 g
Tumor Volume (mm3) (d30) ([3]; d 30): 466.98 ± 255.88 mm3
